Experimental data from patent US20090203667A1, “PENTADIENAMIDE DERIVATIVES” (Kyowa Hakko Kirin Co., Ltd., priority 2006, published 2009).
Structures can show the parent of a compound that is named as a salt.

How the values were obtained:
[1] = molecular target: T1, vanilloid receptor (TRPV1) (Rattus norvegicus, UniProt O35433); assay: [3H]Resiniferatoxin ([3H]RTX) binding experiment using rat spinal cord; details: rat spinal cord membrane specimen, 37° C., 60 minutes; read-out: IC50 of [3H]RTX specific binding
T1 construct: The spinal cord was extirpated from an SPF/VAF rat; from tissue; host or cells: rat spinal cord membrane specimen (SPF/VAF rat, Charles River Laboratories Japan Inc.)
Method: [^3H]Resiniferatoxin ([^3H]RTX) Binding Experiment Using Rat Spinal Cord
The spinal cord was extirpated from an SPF/VAF rat (Charles River Laboratories Japan Inc.) and homogenized in an ice-cooled homogenization buffer (10 mmol/L HEPES/NaOH, 5 mmol/L KCl, 5.8 mmol/L NaCl, 2 mmol/L MgCl2, 0.75 mmol/L CaCl2, 12 mmol/L glucose, 137 mmol/L sucrose, pH 7.4). The resulting homogenate was centrifuged at 1000 g for 10 minutes at 4° C. The supernatant was centrifuged at 35000 g for 30 minutes at 4° C. The obtained precipitate was suspended in the homogenization buffer. The suspension was used as a tissue membrane specimen, and the protein concentration was determined using a protein assay staining solution (Bio-Rad Laboratories, US). The thus prepared specimen was stored at −80° C.
The known method [The Journal of Pharmacology and Experimental Therapeutics, 267: 728-733 (1993)] was modified and the modified method was performed. 400 μL of a membrane specimen solution (protein amount: about 50 μg) obtained by diluting the prepared specimen with an assay buffer (10 mmol/L HEPES/NaOH, 5 mmol/L KCl, 5.8 mmol/L NaCl, 2 mmol/L MgCl2, 0.75 mmol/L CaCl2, 12 mmol/L glucose, 137 mmol/L sucrose, 0.25 mg/mL bovine serum albumin, pH 7.4), 50 μL of a test compound solution, and 50 μL of [^3H]RTX (PerkinElmer Life Sciences Inc., US) were mixed and the mixture was incubated at 37° C. for 60 minutes. The reaction mixture was transferred on ice, and 50 μL of previously ice-cooled 2 mg/mL α1 acid glycoprotein (Sigma) was added thereto, and then, the mixture was centrifuged at 12000 g for 15 minutes at 4° C. A procedure in which 0.4 mL of the assay buffer was added to the obtained precipitate and the mixture was centrifuged at 12000 g for 15 minutes at 4° C. was performed twice. The precipitate obtained by the centrifugation was suspended in 0.5 mL of a 0.1 mol/L aqueous NaOH solution. 7 mL of Ultima Gold (Packard, US) was added to the suspension, and the radioactivity of the solution was measured using a liquid scintillation counter (LS6500: Beckman Coulter, Inc., US or TRI-CARB 2700TR: Packard, US). The [^3H]RTX binding amount in the presence of 0.1 μmol/L RTX was considered to be non-specific binding, and the specific binding was calculated by subtracting this value from the total amount of [^3H]RTX binding to the membrane specimen. Then, the replacement amount of the [^3H]RTX specific binding in the presence of the compound to the [^3H]RTX specific binding amount in the absence of the compound was calculated in percent. The IC50 value of the compound in this experiment was obtained from a logistic equation.
The logistic equation was fit to the following equation (equation 205 in the program) in the curve regression program XLfit (IDBS Inc.).
Y: Inhibition ratio X: Concentration of test compound

[2] = test system: entrapment nerve injury rat; assay: Neuropathic pain inhibitory activity in entrapment nerve injury rat (von Frey pain threshold); assay type: in vivo; details: orally administered, dose of 20 mg/kg or less, measured after 1 hour, von Frey filaments
Text: Neuropathic Pain Inhibitory Activity of Compound in Entrapment Nerve Injury Rat
The method of Mosconi, Kruger et al. (Pain, vol. 64, pp. 37-57 (1996)) was modified partially and an entrapment nerve injury rat was produced.
By using a male Crl:CD(SD) rat, the sciatic nerve of the left hind limb was exfoliated under pentobarbital anesthesia, and the exfoliated region was covered with a polyethylene tube (trade name: Intramedic, size: PE-60, manufactured by Becton Dickinson and Company) with a length of 2 mm. On days 14 to 21 after the surgery, the rat was placed in a stainless-steel connected cage (750 mm (length)×210 mm (depth)×170 mm (height)) consisting of 5 cages connected in a row and having a mesh floor and was acclimated to the environment for at least 20 minutes, and then, the pain was evaluated.
The pain was evaluated using von Frey filaments (trade name: touch test sensory evaluator, Model number: model 58011, manufactured by Muromachi Kikai), and the results were calculated as a pain threshold. That is, by using a von Frey filament of different stimulation intensity, stimulation was given to the paw at the injured side of the entrapment nerve injury rat, and the stimulation intensity at which the paw was withdrawn was obtained. Then, the pain threshold (paw withdrawal threshold) (g) was calculated by the up down method of Dixon [Annual Review of Pharmacology and Toxicology, vol. 20, pp. 441-462 (1980)]. Incidentally, the pain threshold of a normal rat was from 10 to 12 g on an average.
In the evaluation of the test compound, a rat having a 50% pain threshold of less than 4 g was used, and the test compound was dissolved in a 0.5% aqueous methyl cellulose solution and orally administered at a dose of 5 mL/kg. After 1 hour, by using von Frey filaments, the pain threshold was measured.

T1 sequence (O35433 whole entry): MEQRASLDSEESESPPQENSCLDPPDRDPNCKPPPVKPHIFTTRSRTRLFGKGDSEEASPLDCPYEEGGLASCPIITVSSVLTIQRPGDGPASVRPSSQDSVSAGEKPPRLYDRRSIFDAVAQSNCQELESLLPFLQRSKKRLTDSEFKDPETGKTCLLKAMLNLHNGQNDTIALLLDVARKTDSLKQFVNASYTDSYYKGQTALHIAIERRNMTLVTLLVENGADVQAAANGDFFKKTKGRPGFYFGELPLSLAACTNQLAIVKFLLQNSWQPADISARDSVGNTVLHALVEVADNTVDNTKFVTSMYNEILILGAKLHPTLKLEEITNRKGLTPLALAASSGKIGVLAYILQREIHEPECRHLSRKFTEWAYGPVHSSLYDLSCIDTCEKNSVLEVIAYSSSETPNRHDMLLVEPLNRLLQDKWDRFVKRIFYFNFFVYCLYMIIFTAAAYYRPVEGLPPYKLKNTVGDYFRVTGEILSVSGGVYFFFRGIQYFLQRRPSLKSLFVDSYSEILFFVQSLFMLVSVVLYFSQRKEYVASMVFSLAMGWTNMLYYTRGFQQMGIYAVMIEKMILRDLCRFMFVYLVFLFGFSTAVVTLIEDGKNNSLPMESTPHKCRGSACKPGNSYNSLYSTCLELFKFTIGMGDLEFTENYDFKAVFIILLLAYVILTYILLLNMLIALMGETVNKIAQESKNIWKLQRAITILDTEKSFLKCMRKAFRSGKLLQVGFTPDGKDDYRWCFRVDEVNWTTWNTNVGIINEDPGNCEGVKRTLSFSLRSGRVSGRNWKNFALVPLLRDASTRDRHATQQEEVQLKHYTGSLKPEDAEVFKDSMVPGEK

melting point [°C] | Structure (SMILES) | IC50 [1] [nM] | pain threshold (paw withdrawal threshold) [2]
 | CC(C)Oc1ccc(/C(=C\C=C\C(=O)Nc2cccc3c2CC(O)C(=O)N3)c2ccc(C(F)(F)F)cc2)cc1 (stereo not drawn) [Compound 229, (2E,4Z)-N-(3-Hydroxy-2-oxo-1,2,3,4-tetrahydroquinolin-5-yl)-5-(4-isopropoxyphenyl)-5-[4-(trifluoromethyl)phenyl]-2,4-pentadienamide] | < 100 | significantly increases the pain threshold
 | Cc1cccc(/C(=C\C=C\C(=O)Nc2cccc3c2CC(O)C(=O)N3)c2ccc(C(F)(F)F)cc2)c1 (stereo not drawn) [Compound 188, (2E,4Z)-N-(3-Hydroxy-2-oxo-1,2,3,4-tetrahydroquinolin-5-yl)-5-(3-methylphenyl)-5-[4-(trifluoromethyl)phenyl]-2,4-pentadienamide] | < 100 | significantly increases the pain threshold
 | CN(C)c1ccc(/C(=C\C=C\C(=O)Nc2cccc3c2CC(O)CN3)c2ccc(C(F)(F)F)cc2)cc1.Cl.Cl (stereo not drawn) [Compound 270, (2E,4Z)-5-[4-(N,N-Dimethylamino)phenyl]-N-(3-hydroxy-1,2,3,4-tetrahydroquinolin-5-yl)-5-[4-(trifluoromethyl)phenyl]-2,4-pentadienamide Dihydrochloride] | < 100 | significantly increases the pain threshold
249 to 251 | O=C(/C=C/C=C(c1ccc(C(F)(F)F)cc1)c1ccc(C(F)(F)F)cc1)Nc1cccc2ccc(O)cc12 [Compound 10, (E)-N-(7-Hydroxynaphthalen-1-yl)-5,5-bis[4-(trifluoromethyl)phenyl]-2,4-pentadienamide] | < 100 | 
 | CC(C)Oc1ccc(/C(=C\C=C\C(=O)Nc2cccc3[nH]ncc23)c2ccc(C(F)(F)F)cc2)cc1 [Compound 178, (2E,4Z)-N-(1H-Indazol-4-yl)-5-(4-isopropoxyphenyl)-5-[4-(trifluoromethyl)phenyl]-2,4-pentadienamide] | < 100 | significantly increases the pain threshold
118 to 119 | N#Cc1cccc(/C(=C\C=C\C(=O)Nc2cccc3cnccc23)c2ccc(C(F)(F)F)cc2)c1 [Compound 68, (2E,4Z)-5-(3-Cyanophenyl)-N-(isoquinolin-5-yl)-5-[4-(trifluoromethyl)phenyl]-2,4-pentadienamide] | < 100 | 
114 to 115 | O=C(/C=C/C=C(\c1ccccc1)c1ccc(C(F)(F)F)cc1)Nc1cccc2cnccc12 [Compound 59, (2E,4E)-N-(Isoquinolin-5-yl)-5-phenyl-5-[4-(trifluoromethyl)phenyl]-2,4-pentadienamide] | < 100 | 
255 to 257 | O=C(/C=C/C=C(c1ccc(C(F)(F)F)cc1)c1ccc(C(F)(F)F)cc1)Nc1cncc(CO)c1 [Compound 25, (E)-N-[(5-Hydroxymethyl)pyridin-3-yl]-5,5-bis[4-(trifluoromethyl)phenyl]-2,4-pentadienamide] | < 100 | 
 | CCOc1ccc(/C(=C\C=C\C(=O)Nc2ccccc2C(O)CO)c2ccc(C(F)(F)F)cc2)cc1 (stereo not drawn) [Compound 163, (2E,4Z)-N-[2-(1,2-Dihydroxyethyl)phenyl]-5-(4-ethoxyphenyl)-5-[4-(trifluoromethyl)phenyl]-2,4-pentadienamide] | < 100 | 
 | CCOc1ccc(/C(=C\C=C\C(=O)Nc2cccc3c2CC(O)C(=O)N3)c2ccc(C(F)(F)F)cc2)cc1 (stereo not drawn) [Compound 257, (2E,4Z)-N-(3-Hydroxy-2-oxo-1,2,3,4-tetrahydroquinolin-5-yl)-5-(4-ethoxyphenyl)-5-[4-(trifluoromethyl)phenyl]-2,4-pentadienamide] | < 100 | significantly increases the pain threshold
 | CC(C)(C)Oc1ccc(/C(=C\C=C\C(=O)Nc2cccc3c2CC(O)C(=O)N3)c2ccc(C(F)(F)F)cc2)cc1 (stereo not drawn) [Compound 191, (2E,4Z)-5-(4-tert-Butoxyphenyl)-N-(3-hydroxy-2-oxo-1,2,3,4-tetrahydroquinolin-5-yl)-5-[4-(trifluoromethyl)phenyl]-2,4-pentadienamide] | < 100 | significantly increases the pain threshold
 | CCOc1ccc(/C(=C\C=C\C(=O)Nc2cccc3c2CC(O)CN3)c2ccc(C(F)(F)F)cc2)cc1 (stereo not drawn) [Compound 240, (2E,4Z)-5-(4-Ethoxyphenyl)-N-(3-hydroxy-1,2,3,4-tetrahydroquinolin-5-yl)-5-[4-(trifluoromethyl)phenyl]-2,4-pentadienamide monohydrochloride] | < 100 | significantly increases the pain threshold
 | CCOc1ccc(/C(=C\C=C\C(=O)Nc2cccc3c2CC(O)C(=O)N3)c2ccc(Cl)cc2)cc1 (stereo not drawn) [Compound 310, (2E,4E)-5-(4-Chlorophenyl)-5-(4-ethoxyphenyl)-N-(3-hydroxy-2-oxo-1,2,3,4-tetrahydroquinolin-5-yl)-2,4-pentadienamide] | < 100 | significantly increases the pain threshold
 | O=C(/C=C/C=C(/c1ccc(C(F)(F)F)cc1)c1ccco1)Nc1cccc2cnccc12 [Compound 63, (2E,4Z)-5-(Furan-2-yl)-N-(isoquinolin-5-yl)-5-[4-(trifluoromethyl)phenyl]-2,4-pentadienamide] |  | significantly increases the pain threshold
 | O=C(/C=C/C=C(\c1ccc(OC2COC2)cc1)c1ccc(C(F)(F)F)cc1)Nc1cccc2c1CC(O)C(=O)N2 (stereo not drawn) [Compound 314, (2E,4Z)-N-(3-Hydroxy-2-oxo-1,2,3,4-tetrahydroquinolin-5-yl)-5-[4-(oxetan-3-yloxy)phenyl]-5-[4-(trifluoromethyl)phenyl]-2,4-pentadienamide] | < 100 | significantly increases the pain threshold
164 to 166 | O=C(/C=C/C=C(c1ccc(C(F)(F)F)cc1)c1ccc(C(F)(F)F)cc1)Nc1cccc2cnccc12 [Compound 11, (E)-N-(Isoquinolin-5-yl)-5,5-bis[4-(trifluoromethyl)phenyl]-2,4-pentadienamide] | < 100 | 
142 to 143 | O=C(/C=C/C=C(\c1ccc(F)cc1)c1ccc(C(F)(F)F)cc1)Nc1cccc2cnccc12 [Compound 74, (2E,4Z)-5-(4-Fluorophenyl)-N-(isoquinolin-5-yl)-5-[4-(trifluoromethyl)phenyl]-2,4-pentadienamide] | < 100 | significantly increases the pain threshold
